# Reference: US11426375B2, “Substituted bisphenyl butanoic ester derivatives as NEP inhibitors” (NOVARTIS AG, priority 2019, dated 2022)
# Columns and labels:
# [1] = set-up: species or system Cynomolgus Monkeys; conditions: cynomolgus monkey, in vivo, po, 10 mg/kg
# Description: A cross-over study design consisting of two groups with two animals per group was conducted to examine the pharmacokinetic properties of compound I-1 of the present disclosure.
# Compound I-1 and AHU377 were administered to each group as follows: compound I-1 on Day 0 followed by AHU377 on Day 2 (Group 1), AHU377 on Day 0 followed by compound I-1 on Day 2 (Group 2). Each animal received a single 10 mg/kg (5 ml/kg) oral gavage dose of the specified study drug on the specified day. The animals were 2.5 to 3.5 years of age and weighed between 3.1 and 4.3 kg at the beginning of the study. Both compounds were formulated in 0.5% methylcellulose (400 cp) and 0.1% Tween 80 (w,v) in water. Blood samples for pharmacokinetics analysis were collected at t=0, 0.25, 0.5, 1, 2, 4, 8, 24 and 48 hours post dose on Day 0 and Day 2. Plasma was prepared by collecting whole blood samples into tubes containing K2EDTA and NaF (final concentrations: ˜1 mg/mL (K2EDTA) and ˜2 mg/mL (NaF)). These tubes were kept in an ice bath prior to centrifugation at approximately 2,000 rcf for 10 minutes at approximately 5° C. To each resultant plasma sample (target volume 200 μL), 4 μL of 50% phosphoric acid (v/v) was added.
# [^13C4]-LBQ657 was added as an internal standard to the pharmacokinetic (PK) samples and calibration standards prior to analysis by LC-MS/MS. The LC-MS system consisted of an API6500+ mass spectrometer coupled to an Agilent 1290 HPLC system equipped with a CTC Pal autosampler. The mass spectrometer was operated in the positive ion mode.
# [2] = format: physicochemical; conditions: pH 2
# Description: It was stable at pH of 4.7 and pH of 6.8 up to 70° C. for 3 days.
structure (smiles),measurement,setting,value
"CCOC(=O)[C@H](C)C[C@@H](Cc1ccc(-c2ccccc2)cc1)NC(=O)CCC(=O)N[C@@H](CC(C)C)C(=O)O [Compound I-1, (4-(((2S,4R)-1-([1,1′-biphenyl]-4-yl)-5-ethoxy-4-methyl-5-oxopentan-2-yl)amino)-4-oxobutanoyl)-L-leucine]",compound I-1 concentrations in plasma,[1],below the lower limit of quantitation
same,tolerability,[1],well tolerated
same,relative bioavailability compared to AHU377 based on AUC values,[1]; male,72%
same,relative bioavailability compared to AHU377 based on Cmax values,[1]; male,30%
same,degradation in solution,[2]; 1 day,18.27%
same,solution stability under acidic conditions,[2],unstable
